The supplement of paper PMC11781733
Structures can show the parent of a compound that is named as a salt.

Tests used:
Details in all cases: exposure time: 15 min to 3 h acute
Dugesia japonica [1] = assay: resting fraction in blue light vs vehicle (difference in fraction x100 vs vehicle); higher = higher incidence or increase relative to vehicle control
Summary of the method: (§1)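 The resting fraction, in the dark or under blue light, comes from automated tracking of intact, fasted Dugesia japonica. Worms sat singly in wells of a 48-well plate in 200 μL and were tested 15 min to 3 h after exposure in 0.5% DMSO or water vehicle. The plate's vehicle median was subtracted from each worm and the difference multiplied by 100, then the median was reported after excluding worms that crawled out.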

Dugesia japonica [2] = assay: pharynx extrusion incidence (% planarians (vehicle-normalised)); higher = higher incidence or increase relative to vehicle control
Summary of the method: (§2)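 Pharynx extrusion was scored manually and blind as a body-shape category in intact, fasted Dugesia japonica, one per well of a 48-well plate in 200 μL. Worms were tested 15 min to 3 h after exposure in 0.5% DMSO or water vehicle. Eight worms per concentration per plate were run in technical triplicate (n = 24). The incidence rate ×100 was normalised to in-plate vehicle controls, negatives were set to 0, and worms that crawled out were excluded.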

Dugesia japonica [3] = assay: speed second 30 s blue light vs vehicle (% change vs vehicle); higher = higher incidence or increase relative to vehicle control
Summary of the method: (§3)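 For each worm, crawling speed under dark or blue-light conditions was tracked automatically and expressed against the median of that plate's vehicle worms, and the reported value is the median percent change. The worms were intact, fasted Dugesia japonica held one per well in 200 μL in a 48-well plate, exposed in 0.5% DMSO or water vehicle and tested from 15 min to 3 h afterwards. Eight were used per concentration per plate across technical triplicate (n = 24), excluding any that crawled out.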

Dugesia japonica [4] = assay: anxiety (time in outer well region) vs vehicle (% change vs vehicle); higher = higher incidence or increase relative to vehicle control
Summary of the method: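 The value is the median normalized time that planarians spent in the outer portion of the well. D. japonica worms, fasted 5–7 days, were held singly in 200 μL per well of sealed 48-well plates at at least 5 concentrations (n = 24 per concentration) and screened within 15 minutes–3 hours. Each worm's response was divided by, or reduced by, the plate vehicle median and then multiplied by 100, and worms that crawled out were left out.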

Dugesia japonica [5] = assay: crawl-out incidence (% planarians); higher = higher incidence or increase relative to vehicle control
Dugesia japonica [6] = assay: any abnormal body shape incidence (% planarians (vehicle-normalised)); higher = higher incidence or increase relative to vehicle control
Summary of the method: (§4)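 Single D. japonica planarians, fasted 5–7 days, sat in 200 μL per well of sealed 48-well plates and were screened 15 minutes–3 hours after exposure to at least 5 concentrations. Shapes were scored by hand and blind. The reported value is the incidence of a particular shape, or of any abnormal shape, ×100, set against in-plate vehicle controls with negatives taken as 0.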

Dugesia japonica [7] = assay: hyperkinesis incidence (% planarians (vehicle-normalised)); higher = higher incidence or increase relative to vehicle control
Summary of the method: as §4

Dugesia japonica [8] = assay: speed first 30 s blue light vs vehicle (% change vs vehicle); higher = higher incidence or increase relative to vehicle control
Summary of the method: as §3

Dugesia japonica [9] = assay: corkscrew incidence (% planarians (vehicle-normalised)); higher = higher incidence or increase relative to vehicle control
Summary of the method: as §4

Dugesia japonica [10] = assay: resting fraction in dark vs vehicle (difference in fraction x100 vs vehicle); higher = higher incidence or increase relative to vehicle control
Summary of the method: as §1

Dugesia japonica [11] = assay: noxious heat displacement strength vs vehicle (% change vs vehicle); higher = higher incidence or increase relative to vehicle control
Summary of the method: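 Values are the median percent change in displacement strength under noxious heat, scored by automated object tracking in the scrunching assay with intact, fasted Dugesia japonica. Each worm was placed alone in a well of a 48-well plate in 200 μL and tested 15 min to 3 h after exposure in 0.5% DMSO or water vehicle. Eight worms per concentration per plate were run in technical triplicate (n = 24), with each worm normalised to the plate's vehicle median and worms that crawled out excluded.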

Dugesia japonica [12] = assay: contracted body shape incidence (% planarians (vehicle-normalised)); higher = higher incidence or increase relative to vehicle control
Summary of the method: as §4

Dugesia japonica [13] = assay: speed in dark vs vehicle (% change vs vehicle); higher = higher incidence or increase relative to vehicle control
Summary of the method: as §3

Dugesia japonica [14] = assay: total locomotor bursts minus vehicle (bursts difference vs vehicle); higher = higher incidence or increase relative to vehicle control
Summary of the method: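 Planarians of the species Dugesia japonica, fasted beforehand, received half- or quarter-log concentration series in 0.5% DMSO or water, one animal per well of a sealed 48-well plate holding 200 μL solution. They were tested 15 min–3 h after exposure in technical triplicates totalling n = 24. Each animal's count of total locomotor bursts, an unstimulated behaviour obtained by image-based object tracking, had the plate vehicle-control median subtracted without ×100 scaling. The figure given is the median normalised response, with crawled-out worms excluded.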

Dugesia japonica [15] = assay: loss of phototaxis incidence (% planarians (vehicle-normalised)); higher = higher incidence or increase relative to vehicle control
Summary of the method: as §2, with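 “Loss of phototaxis” for “Pharynx extrusion”, “scored” for “scored manually and blind”, “yes/no endpoint” for “body-shape category”, “vehicle, using automated object tracking.” for “vehicle.”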

Dugesia japonica [16] = assay: stickiness incidence (% planarians (vehicle-normalised)); higher = higher incidence or increase relative to vehicle control
Summary of the method: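 Stickiness was scored as a yes-or-no outcome in fasted Dugesia japonica planarians, and incidence was normalised to the vehicle incidence on the same plate. Each worm sat alone in a well of a sealed 48-well plate holding 200 μL of solution and was tested 15 min–3 h after exposure to half- or quarter-log concentration series, with 0.5% DMSO or water as vehicle. Technical triplicates were pooled (n = 24), negative values were set to 0, values were multiplied by 100, and worms that crawled out were excluded.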

Dugesia japonica [17] = assay: C-shape incidence (% planarians (vehicle-normalised)); higher = higher incidence or increase relative to vehicle control
Summary of the method: as §4

Dugesia japonica [18] = assay: loss of heat-induced scrunching incidence (% planarians (vehicle-normalised)); higher = higher incidence or increase relative to vehicle control
Summary of the method: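 Planarians of the species D. japonica, fasted for 5–7 days, were placed singly in wells of sealed 48-well plates in 200 μL and exposed to at least 5 concentrations, 24 worms per concentration in technical triplicates. Scrunching in response to a noxious heat stimulus was tested within 15 minutes–3 hours, and any worm that crawled out was excluded. The reported figure is the incidence of non-scrunching worms, normalised to vehicle controls on the same plate. This incidence is given ×100, with negatives set to 0.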

Row | Structure (SMILES) | resting fraction in blue light (Dugesia japonica [1]) | pharynx extrusion incidence (Dugesia japonica [2]) | speed second 30 s blue light (Dugesia japonica [3]) | anxiety (Dugesia japonica [4]) | crawl-out incidence (Dugesia japonica [5]) | any abnormal body shape incidence (Dugesia japonica [6]) | hyperkinesis incidence (Dugesia japonica [7]) | speed first 30 s blue light (Dugesia japonica [8]) | corkscrew incidence (Dugesia japonica [9]) | resting fraction in dark (Dugesia japonica [10]) | noxious heat displacement strength (Dugesia japonica [11]) | contracted body shape incidence (Dugesia japonica [12]) | speed in dark (Dugesia japonica [13]) | total locomotor bursts minus vehicle (Dugesia japonica [14]) | loss of phototaxis incidence (Dugesia japonica [15]) | stickiness incidence (Dugesia japonica [16]) | C-shape incidence (Dugesia japonica [17]) | loss of heat-induced scrunching incidence (Dugesia japonica [18])
1 | CNCCC(Oc1ccc(C(F)(F)F)cc1)c1ccccc1 (centres undefined) [fluoxetine hydrochloride] (100 µM) | 79.5 | 0 | -89.3 | 7.58 | 0 | 50 | 29.2 | -90.4 | 0 | 70.7 | -80.3 | 0 | -65.4 | 15.5 | 37.5 | ≤ 0 | 33.3 | 37.5
2 | O=C(CCCN1CCC(O)(c2ccc(Cl)cc2)CC1)c1ccc(F)cc1 [haloperidol] (3.16 µM) | 12.2 | 0 | -58.4 | -3.6 | 8.33 | 9.52 | 0 | -68.4 | 4.76 | 16.5 | -30.8 | 4.76 | -38.5 | 4.5 | 31.8 | ≤ 0 | 0 | 9.09
3 | O=C(CCCN1CCC(O)(c2ccc(Cl)cc2)CC1)c1ccc(F)cc1 [haloperidol] (10 µM) | 8.2 | 0 | -53.4 | -0.48 | 16.7 | 20 | 10 | -57.5 | 10 | 15.2 | -26.4 | 5 | -47.5 | 11.5 | 20 | ≤ 0 | 0 | 25
4 | O=C(CCCN1CCC(O)(c2ccc(Cl)cc2)CC1)c1ccc(F)cc1 [haloperidol] (31.6 µM) | 16.3 | 0 | -62.8 | -7.34 | 16.7 | 63.2 | 21.1 | -68 | 52.6 | 35.2 | -24 | 10.5 | -59.3 | 15.5 | 15 | ≤ 0 | 0 | 5
5 | O=C(CCCN1CCC(O)(c2ccc(Cl)cc2)CC1)c1ccc(F)cc1 [haloperidol] (100 µM) | 30.8 | 0 | -68.8 | 1.65 | 4.17 | 38.1 | 19 | -69.3 | 28.6 | 48.4 | -19.3 | 0 | -66.9 | 25 | 13 | ≤ 0 | 0 | 34.8
6 | CN(C)CCCN1c2ccccc2CCc2ccccc21 [imipramine] (1 µM) | 0.17 | 0 | -18.2 | -4.11 | 0 | 4.17 | 0 | -21.6 | 0 | 6.78 | -4.45 | 0 | -23.4 | 3 | ≤ 0 | ≤ 0 | 0 | ≤ 0
7 | CN(C)CCCN1c2ccccc2CCc2ccccc21 [imipramine] (3.16 µM) | 6.5 | 0 | -43.6 | 3.55 | 0 | 0 | 0 | -51.6 | 0 | 12.6 | -7.92 | 0 | -44.7 | 11 | ≤ 0 | ≤ 0 | 0 | ≤ 0
8 | CN(C)CCCN1c2ccccc2CCc2ccccc21 [imipramine] (10 µM) | 3.16 | 0 | -51.7 | 0.22 | 0 | 0 | 0 | -47.9 | 0 | 4.41 | -29.7 | 0 | -48.9 | 10.8 | 12.5 | 16.7 | 0 | ≤ 0
9 | CN(C)CCCN1c2ccccc2CCc2ccccc21 [imipramine] (31.6 µM) | 6.1 | 4.17 | -64.4 | -4.58 | 0 | 45.8 | 33.3 | -68.6 | 0 | 6.51 | -21.9 | 12.5 | -64 | 15.2 | 20.8 | 34.8 | 0 | ≤ 0
10 | O=C(O)/C=C\C(=O)O [maleic acid] (200 µM) | -5.42 | 0 | -23.8 | 23.7 | 0 | 0 | 0 | -32.5 | 0 | -12.7 | -39.3 | 0 | -20.4 | -2 | ≤ 0 | 12.5 | 0 | 33.3
11 | Cc1ncc2n1-c1ccc(Cl)cc1C(c1ccccc1F)=NC2 [midazolam] (17.8 µM) | -0.5 | 0 | -2.19 | -7.26 | 0 | 33.3 | 33.3 | -3.83 | 0 | 1.03 | -19.1 | 0 | -14.7 | 1 | ≤ 0 | ≤ 0 | 0 | ≤ 0
12 | Cc1ncc2n1-c1ccc(Cl)cc1C(c1ccccc1F)=NC2 [midazolam] (31.6 µM) | -0.5 | 0 | 23.1 | 3.09 | 0 | 20.8 | 20.8 | -1.82 | 0 | -0.404 | -27.4 | 0 | 8.87 | -0.5 | ≤ 0 | ≤ 0 | 0 | 8.33
13 | Cc1ncc2n1-c1ccc(Cl)cc1C(c1ccccc1F)=NC2 [midazolam] (56.2 µM) | 2.61 | 0 | -10.2 | 7.1 | 0 | 33.3 | 20.8 | -29.6 | 0 | 22.7 | -25.6 | 12.5 | -34 | 2.5 | ≤ 0 | 4.17 | 0 | ≤ 0
14 | Cc1ncc2n1-c1ccc(Cl)cc1C(c1ccccc1F)=NC2 [midazolam] (100 µM) | 68.2 | 4.17 | -87.7 | 2.35 | 0 | 95.8 | 70.8 | -93 | 0 | 59.7 | -48.3 | 45.8 | -70.7 | 28.5 | 29.2 | 20.8 | 20.8 | 45.8
15 | Cc1cc2c(s1)Nc1ccccc1N=C2N1CCN(C)CC1 [olanzapine] (100 µM) | 76 | 0 | -91.1 | 18.3 | 41.7 | 77.3 | 45.5 | -93.9 | 18.2 | 79.9 | -50.1 | 27.3 | -67.8 | -2.75 | 7.14 | 27.3 | 13.6 | 68.2
16 | Cc1cc2c(s1)Nc1ccccc1N=C2N1CCN(C)CC1 [olanzapine] (316 µM) | 77.4 | 0 | -89.1 | -6.74 | 37.5 | 81.8 | 45.5 | -94.9 | 13.6 | 73.9 | -47.4 | 31.8 | -71.2 | 7 | 13.3 | 22.7 | 27.3 | 72.7
17 | O=C(O)C(=O)O [oxalic acid] (100 µM) | 1.86 | 0 | -8.31 | 24.9 | 0 | 12.5 | 12.5 | -25.2 | 0 | -1.66 | -11.5 | 0 | -6.93 | 6.5 | ≤ 0 | ≤ 0 | 0 | 8.33
18 | O=C(O)C(=O)O [oxalic acid] (316 µM) | 22.9 | 0 | -69 | -24.7 | 0 | 62.5 | 58.3 | -63.2 | 0 | 33 | -67.5 | 0 | -42.2 | 31.5 | 8.33 | 37.5 | 0 | ≤ 0
